In patent publication US20080234262A1 (Wyeth, priority 2007, published 2008):

Experiments:
prostate line LNCap = test: In vitro cell culture growth assay (MTS), LNCap; assay type: cell-based, human; details: Homo sapiens, LNCaP, 72 h, LNCap cells, three days after drug treatment;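 note: viable cell density read by absorbance at 490 nm, growth expressed as percent of vehicle-treated cells on the same plate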
PI3K = PI3K (Homo sapiens, UniProt P42336); test: Fluorescence polarization assay for PI3K; assay type: biochemical; details: PI3Kα; read-out: PI3Kα IC50;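 note: PI3K kinase reaction on PIP2 with ATP, 30-60 min, product sensed by GST-GRP with red probe in fluorescence polarization (mP), controls without enzyme and at zero time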
breast line MDA468 = test: In vitro cell culture growth assay (MTS), MDA468; assay type: cell-based, human; details: MDA468 cells, three days after drug treatment
Procedure, shortened: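 Three-day drug treatment starting 1 day post-plating; viable cells quantified via MTS metabolism (A490); effect normalised to in-plate vehicle controls as % growth.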

Chain of PI3K (P42336 whole entry): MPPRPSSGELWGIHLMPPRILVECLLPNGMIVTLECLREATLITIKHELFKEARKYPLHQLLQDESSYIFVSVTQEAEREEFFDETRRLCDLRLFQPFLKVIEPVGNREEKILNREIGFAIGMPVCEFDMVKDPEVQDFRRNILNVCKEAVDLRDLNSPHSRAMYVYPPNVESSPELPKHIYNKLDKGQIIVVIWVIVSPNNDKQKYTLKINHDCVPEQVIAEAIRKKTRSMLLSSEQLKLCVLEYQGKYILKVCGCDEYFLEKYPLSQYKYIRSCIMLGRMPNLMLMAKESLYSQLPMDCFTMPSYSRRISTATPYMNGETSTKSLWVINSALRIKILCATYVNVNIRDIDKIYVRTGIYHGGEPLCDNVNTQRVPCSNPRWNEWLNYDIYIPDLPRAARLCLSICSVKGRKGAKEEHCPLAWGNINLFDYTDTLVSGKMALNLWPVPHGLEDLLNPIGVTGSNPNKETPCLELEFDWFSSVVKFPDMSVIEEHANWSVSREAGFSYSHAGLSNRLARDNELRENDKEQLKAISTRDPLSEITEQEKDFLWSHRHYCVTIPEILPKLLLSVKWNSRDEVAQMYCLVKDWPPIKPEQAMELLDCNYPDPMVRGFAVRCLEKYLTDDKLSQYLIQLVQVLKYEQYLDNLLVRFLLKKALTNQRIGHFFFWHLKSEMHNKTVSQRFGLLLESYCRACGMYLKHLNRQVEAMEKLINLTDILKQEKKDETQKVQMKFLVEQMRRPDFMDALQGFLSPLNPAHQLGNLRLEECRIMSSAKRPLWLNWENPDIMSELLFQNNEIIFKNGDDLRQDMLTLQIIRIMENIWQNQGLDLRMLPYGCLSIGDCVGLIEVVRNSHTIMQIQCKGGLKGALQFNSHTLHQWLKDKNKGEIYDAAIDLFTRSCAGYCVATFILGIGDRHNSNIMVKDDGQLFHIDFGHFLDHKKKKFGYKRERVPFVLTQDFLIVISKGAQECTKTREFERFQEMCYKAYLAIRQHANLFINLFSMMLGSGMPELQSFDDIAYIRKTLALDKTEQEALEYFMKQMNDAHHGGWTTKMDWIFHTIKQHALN
Chain of PI3K (P27986 whole entry partner): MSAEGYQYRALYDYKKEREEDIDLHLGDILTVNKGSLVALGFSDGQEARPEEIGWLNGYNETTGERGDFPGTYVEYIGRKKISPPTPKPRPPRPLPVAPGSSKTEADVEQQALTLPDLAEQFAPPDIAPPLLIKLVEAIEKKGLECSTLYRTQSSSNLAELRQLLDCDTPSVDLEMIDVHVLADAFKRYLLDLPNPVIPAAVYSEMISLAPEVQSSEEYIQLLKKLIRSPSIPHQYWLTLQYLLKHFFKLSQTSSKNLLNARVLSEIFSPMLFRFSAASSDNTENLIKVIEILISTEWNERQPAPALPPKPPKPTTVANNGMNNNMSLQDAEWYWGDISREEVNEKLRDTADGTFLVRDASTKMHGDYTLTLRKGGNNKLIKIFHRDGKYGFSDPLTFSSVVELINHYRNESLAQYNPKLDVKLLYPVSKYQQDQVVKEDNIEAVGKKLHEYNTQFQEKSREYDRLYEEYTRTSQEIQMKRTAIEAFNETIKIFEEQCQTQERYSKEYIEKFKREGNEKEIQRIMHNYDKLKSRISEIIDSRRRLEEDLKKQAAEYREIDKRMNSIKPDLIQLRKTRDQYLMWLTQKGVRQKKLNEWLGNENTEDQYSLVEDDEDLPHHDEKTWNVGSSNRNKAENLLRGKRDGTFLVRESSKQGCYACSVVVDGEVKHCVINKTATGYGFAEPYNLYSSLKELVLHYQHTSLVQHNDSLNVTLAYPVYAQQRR

For O=C(Nc1cccnc1)Nc1ccc(-c2nc(N3CCOCC3)c3cnn(C4CCN(Cc5cccnc5)CC4)c3n2)cc1F [Example 373, 1-(2-fluoro-4-{4-morpholin-4-yl-1-[1-(pyridin-3-ylmethyl)piperidin-4-yl]-1H-pyrazolo[3,4-d]pyrimidin-6-yl}phenyl)-3-pyridin-3-ylurea], the IC50 (prostate line LNCap) was 40 nM, the IC50 (PI3K) was 55 nM and the IC50 (breast line MDA468; Homo sapiens, 72 h) was 200 nM.
O=C(NCCF)Nc1ccc(-c2nc(N3CCOCC3)c3cnn(C4CCN(Cc5cccnc5)CC4)c3n2)cc1F [Example 374, 1-(2-fluoroethyl)-3-(2-fluoro-4-{4-morpholin-4-yl-1-[1-(pyridin-3-ylmethyl)piperidin-4-yl]-1H-pyrazolo[3,4-d]pyrimidin-6-yl}phenyl)urea] was tested, and the IC50 (prostate line LNCap) was 140 nM, the IC50 (PI3K) was 619 nM and the IC50 (breast line MDA468; Homo sapiens, 72 h) was 1300 nM.
With O=C(Nc1ccccc1)Nc1ccc(-c2nc(N3CCOCC3)c3cnn(C4CCN(C(=O)c5ccccc5)CC4)c3n2)cc1 [Example 378, 1-{4-[1-(1-benzoylpiperidin-4-yl)-4-morpholin-4-yl-1H-pyrazolo[3,4-d]pyrimidin-6-yl]phenyl}-3-phenylurea] the IC50 (prostate line LNCap) was 27 nM, the IC50 (PI3K) was 16 nM and the IC50 (breast line MDA468; Homo sapiens, 72 h) was 100 nM.
NC(=O)Nc1ccc(-c2nc(N3CCOCC3)c3cnn(C4CCN(C(=O)c5ccccc5)CC4)c3n2)cc1 [Example 382, 1-{4-[1-(1-benzoylpiperidin-4-yl)-4-morpholin-4-yl-1H-pyrazolo[3,4-d]pyrimidin-6-yl]phenyl}urea] gave an IC50 (prostate line LNCap) of 170 nM, an IC50 (PI3K) of 85 nM and an IC50 (breast line MDA468; Homo sapiens, 72 h) of 200 nM.
Compound CCOC(=O)Nc1ccc(-c2nc(N3CCOCC3)c3cnn(C4CCN(C(=O)c5ccccc5)CC4)c3n2)cc1 [Example 383, Ethyl {4-[1-(1-benzoylpiperidin-4-yl)-4-morpholin-4-yl-1H-pyrazolo[3,4-d]pyrimidin-6-yl]phenyl}carbamate] has an IC50 (prostate line LNCap) of 900 nM, an IC50 (PI3K) of 1580 nM and an IC50 (breast line MDA468; Homo sapiens, 72 h) of 4300 nM.
Work on O=C(Nc1ccncc1)Nc1ccc(-c2nc(N3CCOCC3)c3cnn(C4CCN(C(=O)c5ccccc5)CC4)c3n2)cc1 [Example 384, 1-{4-[1-(1-benzoylpiperidin-4-yl)-4-morpholin-4-yl-1H-pyrazolo[3,4-d]pyrimidin-6-yl]phenyl}-3-pyridin-4-ylurea] yielded an IC50 (prostate line LNCap) of 42 nM, an IC50 (PI3K) of 19 nM and an IC50 (breast line MDA468; Homo sapiens, 72 h) of 100 nM.
O=C(NCCO)Nc1ccc(-c2nc(N3CCOCC3)c3cnn(C4CCN(C(=O)c5ccccc5)CC4)c3n2)cc1 [Example 385, 1-{4-[1-(1-benzoylpiperidin-4-yl)-4-morpholin-4-yl-1H-pyrazolo[3,4-d]pyrimidin-6-yl]phenyl}-3-(2-hydroxyethyl)urea] gave an IC50 (prostate line LNCap) of 800 nM, an IC50 (PI3K) of 229 nM and an IC50 (breast line MDA468; Homo sapiens, 72 h) of 700 nM.
With CNCCNC(=O)Nc1ccc(-c2nc(N3CCOCC3)c3cnn(C4CCN(C(=O)c5ccccc5)CC4)c3n2)cc1 [Example 386, 1-{4-[1-(1-benzoylpiperidin-4-yl)-4-morpholin-4-yl-1H-pyrazolo[3,4-d]pyrimidin-6-yl]phenyl}-3-[2-(methylamino)ethyl]urea] the IC50 (prostate line LNCap) was 1200 nM, the IC50 (PI3K) was 48 nM and the IC50 (breast line MDA468; Homo sapiens, 72 h) was 1400 nM.
Work on CNC(=O)Nc1ccc(-c2nc(N3CCOCC3)c3cnn(C4CCN(Cc5ccc(F)nc5)CC4)c3n2)cc1 [Example 387, 1-[4-(1-{1-[(6-fluoropyridin-3-yl)methyl]piperidin-4-yl}-4-morpholin-4-yl-1H-pyrazolo[3,4-d]pyrimidin-6-yl)phenyl]-3-methylurea] yielded an IC50 (prostate line LNCap) of 35 nM, an IC50 (PI3K) of 109 nM and an IC50 (breast line MDA468; Homo sapiens, 72 h) of 100 nM.
CNC(=O)Nc1ccc(-c2nc(N3CCOCC3)c3cnn(C4CCN(Cc5ccc(Cl)nc5)CC4)c3n2)cc1 [Example 388, 1-[4-(1-{1-[(6-chloropyridin-3-yl)methyl]piperidin-4-yl}-4-morpholin-4-yl-1H-pyrazolo[3,4-d]pyrimidin-6-yl)phenyl]-3-methylurea] was tested, and the IC50 (prostate line LNCap) was 27 nM, the IC50 (PI3K) was 47 nM and the IC50 (breast line MDA468) was 100 nM.
CNC(=O)Nc1ccc(-c2nc(N3CCOCC3)c3cnn(C4CCN(Cc5ccc(Br)nc5)CC4)c3n2)cc1 [Example 389, 1-[4-(1-{1-[(6-bromopyridin-3-yl)methyl]piperidin-4-yl}-4-morpholin-4-yl-1H-pyrazolo[3,4-d]pyrimidin-6-yl)phenyl]-3-methylurea] was tested, and the IC50 (prostate line LNCap) was 27 nM, the IC50 (PI3K) was 31 nM and the IC50 (breast line MDA468; Homo sapiens, 72 h) was 100 nM.
Compound CNC(=O)Nc1ccc(-c2nc(N3CCOCC3)c3cnn(C4CCN(Cc5cccnc5Cl)CC4)c3n2)cc1 [Example 390, 1-[4-(1-{1-[(2-chloropyridin-3-yl)methyl]piperidin-4-yl}-4-morpholin-4-yl-1H-pyrazolo[3,4-d]pyrimidin-6-yl)phenyl]-3-methylurea] has an IC50 (prostate line LNCap) of 45 nM, an IC50 (PI3K) of 90 nM and an IC50 (breast line MDA468; Homo sapiens, 72 h) of 100 nM.
CNC(=O)Nc1ccc(-c2nc(N3CCOCC3)c3cnn(C4CCN(Cc5cnccc5OC)CC4)c3n2)cc1 [Example 391, 1-[4-(1-{1-[(4-methoxypyridin-3-yl)methyl]piperidin-4-yl}-4-morpholin-4-yl-1H-pyrazolo[3,4-d]pyrimidin-6-yl)phenyl]-3-methylurea] showed an IC50 (prostate line LNCap) of 70 nM, an IC50 (PI3K) of 82 nM and an IC50 (breast line MDA468; Homo sapiens, 72 h) of 200 nM.
With CNC(=O)Nc1ccc(-c2nc(N3CCOCC3)c3cnn(C4CCN(Cc5cncc(F)c5)CC4)c3n2)cc1 [Example 392, 1-[4-(1-{1-[(5-fluoropyridin-3-yl)methyl]piperidin-4-yl}-4-morpholin-4-yl-1H-pyrazolo[3,4-d]pyrimidin-6-yl)phenyl]-3-methylurea] the IC50 (prostate line LNCap) was 110 nM, the IC50 (PI3K) was 153 nM and the IC50 (breast line MDA468; Homo sapiens, 72 h) was 600 nM.
Compound CNC(=O)Nc1ccc(-c2nc(N3CCOCC3)c3cnn(C4CCN(Cc5cncc(Br)c5)CC4)c3n2)cc1 [Example 393, 1-[4-(1-{1-[(5-bromopyridin-3-yl)methyl]piperidin-4-yl}-4-morpholin-4-yl-1H-pyrazolo[3,4-d]pyrimidin-6-yl)phenyl]-3-methylurea] has an IC50 (prostate line LNCap) of 95 nM, an IC50 (PI3K) of 72 nM and an IC50 (breast line MDA468; Homo sapiens, 72 h) of 600 nM.
CNC(=O)Nc1ccc(-c2nc(N3CCOCC3)c3cnn(C4CCN(Cc5ccc(Cl)cc5)CC4)c3n2)cc1 [Example 394, 1-(4-{1-[1-(4-chlorobenzyl)piperidin-4-yl]-4-morpholin-4-yl-1H-pyrazolo[3,4-d]pyrimidin-6-yl}phenyl)-3-methylurea] was tested, and the IC50 (prostate line LNCap) was 60 nM, the IC50 (PI3K) was 18 nM and the IC50 (breast line MDA468; Homo sapiens, 72 h) was 300 nM.
CNC(=O)Nc1ccc(-c2nc(N3CCOCC3)c3cnn(C4CCN(Cc5cccc(Cl)c5)CC4)c3n2)cc1 [Example 395, 1-(4-{1-[1-(3-chlorobenzyl)piperidin-4-yl]-4-morpholin-4-yl-1H-pyrazolo[3,4-d]pyrimidin-6-yl}phenyl)-3-methylurea] was tested, and the IC50 (prostate line LNCap) was 100 nM, the IC50 (PI3K) was 42 nM and the IC50 (breast line MDA468; Homo sapiens, 72 h) was 500 nM.
In the case of CNC(=O)Nc1ccc(-c2nc(N3CCOCC3)c3cnn(C4CCN(Cc5ccccc5Cl)CC4)c3n2)cc1 [Example 396, 1-(4-{1-[1-(2-chlorobenzyl)piperidin-4-yl]-4-morpholin-4-yl-1H-pyrazolo[3,4-d]pyrimidin-6-yl}phenyl)-3-methylurea], the IC50 (prostate line LNCap) is reported as 38 nM, the IC50 (PI3K) is reported as 35 nM and the IC50 (breast line MDA468; Homo sapiens, 72 h) is reported as 200 nM.
With CNC(=O)Nc1ccc(-c2nc(N3CCOCC3)c3cnn(C4CCN(Cc5cccc(O)c5)CC4)c3n2)cc1 [Example 397, 1-(4-{1-[1-(3-hydroxybenzyl)piperidin-4-yl]-4-morpholin-4-yl-1H-pyrazolo[3,4-d]pyrimidin-6-yl}phenyl)-3-methylurea] the IC50 (prostate line LNCap) was 140 nM, the IC50 (PI3K) was 28 nM and the IC50 (breast line MDA468; Homo sapiens, 72 h) was 400 nM.
Work on CNC(=O)Nc1ccc(-c2nc(N3CCOCC3)c3cnn(C4CCN(Cc5ccc(OC)c(O)c5)CC4)c3n2)cc1 [Example 398, 1-(4-{1-[1-(3-hydroxy-4-methoxybenzyl)piperidin-4-yl]-4-morpholin-4-yl-1H-pyrazolo[3,4-d]pyrimidin-6-yl}phenyl)-3-methylurea] yielded an IC50 (prostate line LNCap) of 150 nM, an IC50 (PI3K) of 57 nM and an IC50 (breast line MDA468; Homo sapiens, 72 h) of 600 nM.
CNC(=O)Nc1ccc(-c2nc(N3CCOCC3)c3cnn(C4CCN(Cc5ccccc5O)CC4)c3n2)cc1 [Example 399, 1-(4-{1-[1-(2-hydroxybenzyl)piperidin-4-yl]-4-morpholin-4-yl-1H-pyrazolo[3,4-d]pyrimidin-6-yl}phenyl)-3-methylurea] showed an IC50 (prostate line LNCap) of 60 nM, an IC50 (PI3K) of 37 nM and an IC50 (breast line MDA468; Homo sapiens, 72 h) of 300 nM.
CNC(=O)Nc1ccc(-c2nc(N3CCOCC3)c3cnn(C4CCN(Cc5cccc(OC)c5)CC4)c3n2)cc1 [Example 400, 1-(4-{1-[1-(3-methoxybenzyl)piperidin-4-yl]-4-morpholin-4-yl-1H-pyrazolo[3,4-d]pyrimidin-6-yl}phenyl)-3-methylurea] was tested, and the IC50 (prostate line LNCap) was 70 nM, the IC50 (PI3K) was 43 nM and the IC50 (breast line MDA468; Homo sapiens, 72 h) was 500 nM.
Compound CNC(=O)Nc1ccc(-c2nc(N3CCOCC3)c3cnn(C4CCN(Cc5ccco5)CC4)c3n2)cc1 [Example 402, 1-(4-{1-[1-(2-furylmethyl)piperidin-4-yl]-4-morpholin-4-yl-1H-pyrazolo[3,4-d]pyrimidin-6-yl}phenyl)-3-methylurea] has an IC50 (prostate line LNCap) of 27 nM, an IC50 (PI3K) of 63 nM and an IC50 (breast line MDA468; Homo sapiens, 72 h) of 500 nM.
CNC(=O)Nc1ccc(-c2nc(N3CCOCC3)c3cnn(C4CCOCC4)c3n2)cc1 [Example 403, 1-methyl-3-{4-[4-morpholin-4-yl-1-(tetrahydro-2H-pyran-4-yl)-1H-pyrazolo[3,4-d]pyrimidin-6-yl]phenyl}urea] gave an IC50 (prostate line LNCap) of 103 nM, an IC50 (PI3K) of 45 nM and an IC50 (breast line MDA468; Homo sapiens, 72 h) of 400 nM.
In the case of O=C(Nc1ccc(-c2nc(N3CCOCC3)c3cnn(C4CCN(Cc5cccnc5)CC4)c3n2)cc1)Nc1cccs1 [Example 404, 1-(4-{4-morpholin-4-yl-1-[1-(pyridin-3-ylmethyl)piperidin-4-yl]-1H-pyrazolo[3,4-d]pyrimidin-6-yl}phenyl)-3-(2-thienyl)urea], the IC50 (prostate line LNCap) is reported as 27 nM, the IC50 (PI3K) is reported as 9 nM and the IC50 (breast line MDA468; Homo sapiens, 72 h) is reported as 100 nM.
O=C(Nc1ccc(-c2nc(N3CCOCC3)c3cnn(C4CCN(Cc5cccnc5)CC4)c3n2)cc1)NC1CC1 [Example 405, 1-cyclopropyl-3-(4-{4-morpholin-4-yl-1-[1-(pyridin-3-ylmethyl)piperidin-4-yl]-1H-pyrazolo[3,4-d]pyrimidin-6-yl}phenyl)urea] showed an IC50 (prostate line LNCap) of 27 nM, an IC50 (PI3K) of 438 nM and an IC50 (breast line MDA468; Homo sapiens, 72 h) of 100 nM.
